# Results from ChEMBL document CHEMBL3797052 (Eur J Med Chem, 2016).
# How the values were obtained:
# Format in all cases: functional
# [1] = Antiproliferative activity against human BT549 cells assessed as growth inhibition after 48 hrs by sulforhodamine B assay; conditions: BT-549, 48 h
# [2] = Antiproliferative activity against human HCT15 cells assessed as growth inhibition after 48 hrs by sulforhodamine B assay; conditions: HCT-15, 48 h
# SK-MEL-2 = test: Antiproliferative activity against human SK-MEL-2 cells assessed as growth inhibition after 48 hrs by sulforhodamine B assay; conditions: SK-MEL-2, 48 h
# [3] = Antiproliferative activity against human SF268 cells assessed as growth inhibition after 48 hrs by sulforhodamine B assay; conditions: SF-268, 48 h
# [4] = Antiproliferative activity against human HCT116 cells assessed as growth inhibition after 48 hrs by sulforhodamine B assay; conditions: HCT-116, 48 h
# [5] = Antiproliferative activity against human OVCAR4 cells assessed as growth inhibition after 48 hrs by sulforhodamine B assay; conditions: OVCAR-4, 48 h
# [6] = Antiproliferative activity against human Hs 578T cells assessed as growth inhibition after 48 hrs by sulforhodamine B assay
# [7] = Antiproliferative activity against human PC3 cells assessed as growth inhibition after 48 hrs by sulforhodamine B assay; conditions: PC-3, 48 h
# [8] = read-out: LC50 (the source's name)
structure (smiles),measurement,setting,value
CNC(=O)c1cc(Oc2ccc(NC(=O)Nc3ccc(Cl)c(C(F)(F)F)c3)cc2)ccn1 [SORAFENIB],GI50,[1],3.16 µM
same,TGI,[1],5.01 µM
same,CC50,[1]; [8],15.8 µM
same,GI50,[2],2.51 µM
same,TGI,[2],12.6 µM
same,GI50,SK-MEL-2,2 µM
same,TGI,SK-MEL-2,3.16 µM
same,CC50,SK-MEL-2; [8],6.31 µM
same,GI50,[3],2.51 µM
same,TGI,[3],10 µM
same,TGI,[4],3.98 µM
same,GI50,[5],3.16 µM
same,TGI,[5],12.6 µM
same,CC50,[5]; [8],100 µM
same,TGI,[6],7.94 µM
same,CC50,[6]; [8],100 µM
same,GI50,[7],2 µM
same,TGI,[7],7.94 µM
